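Compound exposure: 48 hours, 5 concentrations, 96-well plates. Definition used: TGI = concentration required for complete inhibition of growth.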
What was measured:
Test in all cases: NCI anticancer screen, dose series, 48 h
[1] = system: SK-MEL-28 melanoma
[2] = system: SW-620 colon
[3] = system: HCT-15 colon
[4] = system: SN12C renal
[5] = system: NCI-H460 lung
[6] = system: COLO 205 colon
[7] = system: MCF7 breast
[8] = system: NCI-H23 lung
[9] = system: HCT-116 colon
[10] = system: NCI-H522 lung
[11] = system: HT29 colon
[12] = system: 786-0 renal
[13] = system: HOP-62 NSCLC
[14] = system: CCRF-CEM leukemia

Row | Compound | TGI [1] [µM] | TGI [2] [µM] | TGI [3] [µM] | TGI [4] [µM] | TGI [5] [µM] | TGI [6] [µM] | TGI [7] [µM] | TGI [8] [µM] | TGI [9] [µM] | TGI [10] [µM] | TGI [11] [µM] | TGI [12] [µM] | TGI [13] [µM] | TGI [14] [µM]
1 | O=C1c2cc(Cc3ccccc3)c(=O)c(Cc3ccccc3)cc2C(=O)c2cc(Cc3ccccc3)c(=O)c(Cc3ccccc3)cc21 | > 100 | > 100 | > 100 | > 100 | > 100 | > 100 | > 100 | > 100 | > 100 | > 100 | > 100 | > 100 | > 100 | > 100
2 | Clc1sc(Cl)c2c1[C@@H](Cl)C[C@@H]2Cl | > 100 | > 100 | > 100 | > 100 | > 100 | > 100 | > 100 | > 100 | > 100 | 58.2 | > 100 | > 100 | > 100 | > 100
3 | NCCCN(CCCCN(CCCN)C(=O)OCc1ccccc1)C(=O)OCc1ccccc1 | > 100 | > 100 | > 100 | > 100 | > 100 | > 100 | 77.7 | > 100 | > 100 | 85.4 | > 100 | > 100 | > 100 | > 100
4 | Cn1cccc1-c1ccc(-c2ccc(CO)[se]2)[se]1 | > 100 | > 100 | > 100 | > 100 | > 100 | > 86.4 | > 40 | > 90 | > 100 | 50.1 | > 100 | > 100 | > 88.1 | > 46.7
5 | C1=C(c2ccccc2)C(N2CCOCC2)Oc2ccccc21 (centres undefined) | > 100 | > 100 | > 100 | > 100 | > 100 | > 100 | > 100 | > 100 | > 100 | > 100 | > 100 | > 100 | > 100 | > 100
6 | COc1cc2ccc(C(=O)NCCCNC(=O)c3ccc4cc(OC)c(OC)cc4c3)cc2cc1OC | > 100 | > 100 | > 100 | > 100 | > 100 | > 100 | > 100 | > 100 | > 100 | > 100 | > 100 | > 100 | > 100 | > 100
7 | N#CC1(C#N)C(C#N)(C#N)C1(C#N)C(N)=O | > 100 | > 100 | > 100 | > 100 | > 100 | > 100 | > 100 | > 100 | > 100 | > 100 | > 100 | > 100 | > 100 | > 100
8 | CC(C)(C)OC(=O)N/C(C=O)=C\C1CCCCC1 | > 100 | > 100 | 41.8 | 42.1 | 40.6 | 36.8 | 72.8 | 62 | 36 | > 100 | 71.6 | 42.6 | 58.9 | > 100
9 | CC[C@@]1(O)C(=O)OCc2c1cc1n(c2=O)Cc2c-1nc1ccc(O)cc1c2[Si](C)(C)C(C)(C)C | 10.7 | 10.9 | 8.81 | < 0.0233 | 0.0263 | 1.53 | > 41.2 | 0.0274 | 0.147 | 0.135 | 4.39 | < 0.0255 | 1.49 | < 0.01
10 | CC(C)(C)OC(=O)[C@@H]1CCC(=O)N1C1(c2ccccc2)c2ccccc2-c2ccccc21 | 71.3 | 87.1 | > 100 | > 100 | > 100 | 77.8 | > 100 | > 100 | > 100 | 94 | 90.1 | > 100 | > 100 | 43.7
11 | CCOC(=O)C1CC(C(=O)c2ccccc2)N2c3ccccc3-c3ccccc3C12 (centres undefined) | > 100 | > 100 | > 100 | > 100 | > 100 | > 100 | > 100 | > 100 | > 100 | > 100 | > 100 | > 100 | > 100 | > 100
12 | CSC(=S)Nc1cc(C)cc(C)n1 | > 31.6 | > 31.6 | > 31.6 | > 31.6 | > 31.6 | > 31.6 | > 31.6 | > 31.6 | > 10 | > 31.6 | > 31.6 | > 31.6 | > 100 | > 31.6
13 | Nc1ccc(-c2nc3ccccc3s2)cc1Cl | > 100 | > 100 | > 100 | > 100 | > 100 | > 100 | > 100 | > 100 | > 100 | > 100 | > 100 | > 100 | 72.8 | 98.3
14 | N#CC(CCN1CCC(Nc2ccccc2)(c2nnnn2C2CCCCC2)CC1)(c1ccccc1)c1ccccc1 | > 100 | > 100 | > 100 | > 100 | > 100 | > 100 | > 100 | > 100 | > 100 | > 100 | > 100 | > 100 | > 100 | > 100
15 | Fc1cccc(F)c1C1SCc2nc3cc(Cl)c(Cl)cc3n21 (centres undefined) | > 100 | > 100 | > 100 | > 100 | > 100 | > 100 | > 100 | > 100 | > 100 | > 100 | > 100 | > 100 | > 100 | > 100
16 | Cn1nc2ccc(Nc3cc(=O)[nH]c4ccc5nn(C)nc5c34)cc2n1 | > 100 | > 100 | > 100 | > 100 | > 100 | > 100 | > 100 | > 100 | > 100 | > 100 | > 100 | > 100 | > 100 | > 100
17 | COC(=O)C1=C(OC(=O)/C(=C/c2ccccc2)c2ccc(OC)cc2)C(C(=O)OC)[C@@]2(O)[C@@H](C(=O)OC)[C@H](C)C[C@@H]1[C@@H]2C(=O)OC (some centres undefined) | > 100 | > 100 | > 100 | > 100 | > 100 | > 100 | > 100 | > 100 | > 100 | > 100 | > 100 | > 100 | > 100 | > 100
18 | Cc1cccc2c(N)c3cccc(C(=O)NCC[N+](C)(C)Cc4ccc([N+](=O)[O-])s4)c3nc12 | > 100 | > 66.3 | > 100 | 49 | 16.5 | 21.4 | > 51.9 | 21.9 | > 100 | 28.2 | 23.6 | 27.8 | 32.5 | 24.4
19 | CCOC(=O)/C(C(N)=O)=C(\O)C(=O)/C(Br)=C(\O)c1ccccc1 | 34.9 | 35.2 | 39.8 | 34.2 | 56.1 | 33.4 | 36.9 | 37.3 | 32 | 3.7 | > 70.8 | 29.7 | 41.5 | 3.54
20 | O[C@@H]1C=C[C@]23CCN(Cc4cc5c(cc42)OCO5)[C@@H]3C1 | > 100 | > 100 | > 100 | > 100 | > 100 | > 100 | > 100 | > 100 | > 100 | > 100 | > 100 | > 100 | > 100 | > 100
21 | Cc1cn(C2CCC(CO)(CF)O2)c(=O)[nH]c1=O (centres undefined) | > 100 | > 100 | > 100 | > 100 | > 100 | > 100 | > 100 | > 100 | > 100 | > 100 | > 100 | > 100 | > 100 | > 100
